Source: patent US9670197B2, “Small molecule modifiers of the Hec1-Nek2 interaction in G2/M” (The Regents of the University of California, priority 2013, dated 2017)

Columns and labels:
[1] = test system: Nek2; experiment: Nek2 protein level in treated HeLa cells, western blot; format: cell-based; conditions: dose series
Description: (§1) INH-induced Nek2 degradation; INH-inhibition of Hec1 phosphorylation by Nek2. […] To evaluate whether INH treatment affected cell cycle profile or Nek2 mRNA level, we performed FACS and real-time PCR analysis.
(§2) Protein extraction and western blot analysis. The protein extractions and western blot analyses of Examples 4-6 were conducted as follows. Cell extracts were prepared and equal amounts of protein were separated by SDS-PAGE (10% w/v gel) followed by electrophoretic transfer to PVDF membranes (Millipore, Billerica, Mass.). After blocking with 5% w/v powdered non-fat milk, the membrane was incubated with different antibodies for overnight at 4° C. and treated for 1 hr with horseradish peroxidase-conjugated goat anti-mouse IgG and goat anti-rabbit IgG antibodies (GeneTex, Irvine, Calif.). ECL detection of the horseradish peroxidase reaction was performed according to the manufacturer's instructions (Millipore, Billerica, Mass.). Protein signal was measured on a LAS 4000 mini Imaging System (Fujifilm, Valhalla, N.Y.).

[2] = target: T1, Hec1 (Homo sapiens, UniProt O14777); experiment: Hec1 protein level in treated HeLa cells, western blot; format: cell-based; conditions: 1 μM, time course
T1 construct: expressed in transfected cells; host or cells: HeLa cells (extracts)
T1 sequence (O14777 1-642): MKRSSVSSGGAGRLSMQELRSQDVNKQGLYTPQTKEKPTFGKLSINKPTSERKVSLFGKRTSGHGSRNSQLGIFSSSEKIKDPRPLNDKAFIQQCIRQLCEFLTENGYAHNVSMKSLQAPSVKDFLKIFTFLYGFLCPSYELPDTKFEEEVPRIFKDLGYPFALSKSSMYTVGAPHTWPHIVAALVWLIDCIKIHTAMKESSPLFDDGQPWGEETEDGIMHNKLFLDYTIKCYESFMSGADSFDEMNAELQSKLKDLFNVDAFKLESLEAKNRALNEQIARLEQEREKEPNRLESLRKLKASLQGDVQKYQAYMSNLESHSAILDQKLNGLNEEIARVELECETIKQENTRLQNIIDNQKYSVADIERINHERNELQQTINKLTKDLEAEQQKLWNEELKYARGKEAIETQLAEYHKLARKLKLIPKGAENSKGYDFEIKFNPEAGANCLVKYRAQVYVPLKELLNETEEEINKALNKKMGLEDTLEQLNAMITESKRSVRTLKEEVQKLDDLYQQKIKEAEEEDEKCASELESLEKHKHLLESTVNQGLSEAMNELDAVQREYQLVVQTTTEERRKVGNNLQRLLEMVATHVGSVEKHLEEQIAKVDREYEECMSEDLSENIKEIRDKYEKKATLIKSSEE
Description: as §1, §2

[3] = target: T2, Nek2 (Homo sapiens, UniProt P51955); experiment: Biotin-conjugated INH pull-down, Nek2; format: binding
T2 construct: endogenous in cells; host or cells: HeLa
T2 sequence (P51955 1-445): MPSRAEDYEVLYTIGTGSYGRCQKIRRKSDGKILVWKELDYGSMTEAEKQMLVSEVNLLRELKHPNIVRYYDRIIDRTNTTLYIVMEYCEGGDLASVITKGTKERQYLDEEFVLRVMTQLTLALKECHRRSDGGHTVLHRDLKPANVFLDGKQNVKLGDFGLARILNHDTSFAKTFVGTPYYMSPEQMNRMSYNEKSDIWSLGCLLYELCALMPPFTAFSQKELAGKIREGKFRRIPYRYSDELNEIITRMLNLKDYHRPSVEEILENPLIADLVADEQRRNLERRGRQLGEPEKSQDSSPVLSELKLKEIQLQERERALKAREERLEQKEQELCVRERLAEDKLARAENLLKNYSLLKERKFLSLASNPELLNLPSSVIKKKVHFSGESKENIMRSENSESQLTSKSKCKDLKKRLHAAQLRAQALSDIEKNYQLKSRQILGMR

[4] = test system: HeLa cells; experiment: Mitotic abnormalities in HeLa cells; format: cell-based, human; conditions: for chromosomal misalignment: 24 hrs of treatment, versus DMSO
Text: INH-triggered mitotic catastrophe. […] Error bars represent SE, n=>200 per sample in FIG. 3A. […] Error bars represent SE n=200 in FIG. 3B. Over time, the accumulation of chromosomal and spindle abnormalities led to cell death.

[5] = test system: MDA-MB-231; experiment: Cancer cell growth inhibition, MDA-MB-231; format: cell-based; conditions: Homo sapiens, Table 2, Breast adenocarcinoma, read-out: cancer cell growth suppression
Description: (§3) Cell lines and establishment of stable cell lines. Human breast cancer cell lines MDA-MB-231 and MDA-MB-468, osteosarcoma line U20S, cervical adenocarcinoma line HeLa, and normal skin fibroblast Hs27 were maintained in DMEM medium (Invitrogen, Grand Island, N.Y.) supplemented 10% fetal bovine serum (FBS) and 1% penicillin-streptomycin. The leukemia cell line K562 and glioblastoma cell line T98G were grown in RPMI 1640 supplemented 10% FBS and 1% penicillin-streptomycin. Normal mammary gland epithelial cell line MCF10A was cultured in DMEM/F12 (50:50) plus 5% horse serum, 0.1 μg/mL cholera toxin, 10 μg/mL insulin, 0.5 μg/mL hydrocortisone, and 20 ng/mL epidermal growth factor. To establish MDA-MB-468 cells that stably expressed each individual GFP-Hec1 deletion construct described above, cells were infected with retrovirus expressing GFP-Hec1 WT, GFP-Hec1 W395A and GFP-Hec1 WLK/AAA, and were selected with 2 μg/ml puromycin.

[6] = test system: PLK1; experiment: PLK1 expression in treated HeLa cells, western blot; format: cell-based; conditions: dose series
Description: as §1, §2

[7] = test system: MCF10A; experiment: Growth inhibition, normal mammary epithelial MCF10A; format: cell-based; conditions: for IC50: Homo sapiens, MCF-10A, Table 2, Epithelial, MCF10A, read-out: cell growth suppression; for growth inhibitory effect on non-tumorgenic epithelial cells: data not shown
Description: as §3

[8] = test system: cancer cell lines; experiment: Cancer cell growth inhibition; format: cell-based
[9] = test system: pS165 Hec1; experiment: Phosphorylated Hec1 (pS165 Hec1) level in treated HeLa cells; format: cell-based; conditions: 1 μM, 4 to 24 hours
Description: as §2
The following antibodies were used in the experiments described in Examples 4-6. Mouse anti-Hec1 clone 9G3, mouse anti-Nek2, mouse anti-myc, mouse anti-PLK1, mouse anti-p84, mouse anti-GAPDH, rabbit anti-Aurora A and rabbit anti-cyclin B1 antibodies (GeneTex, Irvine, Calif.), mouse anti-GFP (Roche, Indianapolis, Ind.), human anti-ACA (Antibodies Inc., Davis, Calif.), mouse anti-alpha-tubulin, rabbit anti-gamma tubulin (Sigma-Aldrich, St. Louis, Mo.), and secondary antibodies conjugated with Alexa dyes (Invitrogen, Grand Island, N.Y.). […]

[10] = test system: K562; experiment: Cancer cell growth inhibition, K562 leukemia; format: cell-based; conditions: Homo sapiens, Table 2, Leukemia, read-out: cancer cell growth suppression
Description: as §3

SMILES	Nek2 degradation, dose dependence [1]	change in Hec1 protein level [2]	interaction with Nek2 in pull-down [3]	chromosomal misalignment [4]	multipolar spindle configurations in the mitotic population ([4]; time course)	IC50 [5] [nM]	expression of PLK1 [6]	IC50 [7] [nM]	growth inhibitory effect on non-tumorgenic epithelial cells [7]	inhibition of cancer cell growth, IC50 (in words) [8]	phosphorylated Hec1 levels (pS165 Hec1) [9]	IC50 [10] [nM]
Cc1cc(C)c(-c2csc(C(=O)c3ccncc3)n2)c(C)c1 [INH41, (4-mesitylthiazol-2-yl)(pyridin-4-yl)methanone]	degraded in a dose-dependent manner	little change	Nek2 does not interact	increased chromosomal misalignment	aggravated in a time-dependent manner	400	not affected	58000	Neither INH41 nor INH154 had significant growth inhibitory effects	sub-micromolar IC50	notably reduced in a time-dependent fashion	620
Cc1cc(N2CCCCC2)cc(C)c1-c1csc(NC(=O)c2ccncc2)n1 [INH154, N-(4-(2,6-Dimethyl-4-(piperidin-1-yl)phenyl)thiazol-2-yl)isonicotinamide]	degraded in a dose-dependent manner	little change	Nek2 does not interact	increased chromosomal misalignment		140	not affected	36000	Neither INH41 nor INH154 had significant growth inhibitory effects	sub-micromolar IC50	notably reduced in a time-dependent fashion	110
